Molecular target: T1, PDGFRα(D842V) (Homo sapiens, UniProt P16234, D842V)
T1 construct: purchased Eurofins Pharma Discovery (KinaseProfiler); IC50 values by Reaction Biology Corp
Experiment: Kinase profiling at 10 μM (Eurofins)
Type: biochemical
Conditions: read-out: Inhibitory activity

T1 sequence (P16234 24-1089 D842V): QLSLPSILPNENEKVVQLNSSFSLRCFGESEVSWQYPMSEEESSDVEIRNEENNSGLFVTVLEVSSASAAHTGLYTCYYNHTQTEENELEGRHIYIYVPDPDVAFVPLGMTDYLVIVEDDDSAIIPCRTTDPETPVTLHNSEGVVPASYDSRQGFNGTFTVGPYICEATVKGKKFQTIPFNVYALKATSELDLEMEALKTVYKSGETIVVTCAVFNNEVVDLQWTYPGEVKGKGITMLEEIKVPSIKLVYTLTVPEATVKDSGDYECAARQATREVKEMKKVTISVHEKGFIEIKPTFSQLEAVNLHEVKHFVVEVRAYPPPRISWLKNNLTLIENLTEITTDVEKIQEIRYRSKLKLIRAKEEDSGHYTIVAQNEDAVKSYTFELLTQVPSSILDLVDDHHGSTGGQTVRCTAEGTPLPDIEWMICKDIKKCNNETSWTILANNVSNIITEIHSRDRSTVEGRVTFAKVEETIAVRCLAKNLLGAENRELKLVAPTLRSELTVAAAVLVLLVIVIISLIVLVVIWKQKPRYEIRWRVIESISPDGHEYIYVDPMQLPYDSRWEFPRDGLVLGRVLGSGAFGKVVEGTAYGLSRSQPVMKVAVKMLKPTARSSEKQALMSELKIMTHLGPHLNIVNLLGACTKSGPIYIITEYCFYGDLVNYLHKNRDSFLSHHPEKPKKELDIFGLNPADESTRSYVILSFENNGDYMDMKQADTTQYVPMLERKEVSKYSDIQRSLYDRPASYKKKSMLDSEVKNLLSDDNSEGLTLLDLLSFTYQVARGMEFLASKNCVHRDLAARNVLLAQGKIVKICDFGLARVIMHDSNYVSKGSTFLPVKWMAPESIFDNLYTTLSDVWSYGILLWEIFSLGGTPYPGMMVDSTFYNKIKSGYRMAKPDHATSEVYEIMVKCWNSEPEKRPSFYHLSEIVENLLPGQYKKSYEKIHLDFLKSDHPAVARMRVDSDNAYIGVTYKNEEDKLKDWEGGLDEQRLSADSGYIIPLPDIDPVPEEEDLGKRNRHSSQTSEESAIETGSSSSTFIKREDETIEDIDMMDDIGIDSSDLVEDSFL

Brc1ccc(-c2cnc(Nc3cccc4ccccc34)o2)cc1 [AIU2001, 5-(4-bromophenyl)-N-(naphthalen-1-yl) oxazol-2-amine]
inhibition at 10 µM: 23%
